This note sets out measurements from patent US6967196B1, “Sulfonamide compounds and uses thereof” (Bristol-Myers Squibb Company, priority 1999, dated 2005).

Where a name gives a salt, the structure may show the parent alone. A value given as a limit tells only on which side of the number the result lay.

In the first assay the test system is amyloid β production in transfected H4 (human neuroglioma) cells stably expressing APP constructs. Briefly: In vitro cell-based assay of inhibitors of amyloid β production (ELISA). The note with it: Homo sapiens, 16 h, transfected H4 cells stably expressing APP constructs; approximately 16 hours incubation; amyloid β in medium by ELISA; read-out: ACTIVITY (IC50, inhibition of amyloid β production). Summed up:
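Aβ secreted into the medium was read by sandwich ELISA (monoclonal capture for the Aβ C-terminus, polyclonal detection for the N-terminus) and calibrated on a standard curve. Before this, APP-expressing H4 cells were exposed to compound for ~16 h at an initial 10-100 μM, with actives then retested in dose-response.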
The term IC50 denotes the concentration at which inhibition is half-maximal. As for `O=S(=O)(c1ccccc1)N(Cc1ccccc1CCCO)c1ccccc1` [Example 1088, N-[2-(3-hydroxypropyl)benzyl]-N-phenylbenzenesulfonamide], the 50% inhibitory concentration (IC50) is > 10000 nM. Still for that read-out and setting: with `O=S(=O)(c1ccc(Cl)cc1)N(Cc1cc(Cl)ccc1C#CCCO)c1ccccc1` [Example 1089, 4-chloro-N-[5-chloro-2-(4-hydroxy-1-butynyl)benzyl]-N-phenylbenzenesulfonamide] the figure was > 10000 nM. Turning to `O=S(=O)(c1ccc(Cl)cc1)N(Cc1ccccc1OCc1cccnc1)c1ccccc1` [Example 1091, 4-chloro-N-phenyl-N-[2-(3-pyridinylmethoxy)benzyl]benzenesulfonamide hydrochloride], the IC50 was > 10000 nM.

Consider `O=S(=O)(c1ccc(Cl)cc1)N(Cc1ccccc1OCc1ccccn1)c1ccccc1` [Example 1092, 4-chloro-N-phenyl-N-[2-(2-pyridinylmethoxy)benzyl]benzenesulfonamide hydrochloride], for which the IC50 is > 10000 nM. In the case of `CS(=O)(=O)c1ccc(N(Cc2ccccc2OCCCN2CCCCC2)S(=O)(=O)c2ccc(Cl)cc2)cc1` [Example 1094, 4-chloro-N-[4-(methylsulfonyl)phenyl]-N-{2-[3-(1-piperidinyl)propoxy]benzyl}benzenesulfonamide hydrochloride], the IC50 was > 10000 nM. On the same count and under the same terms, the result for `O=S(=O)(c1ccc(Sc2ccccc2)cc1)N(Cc1ccccc1OCCCSc1ccccc1)c1cc(F)ccc1F` [Example 1095, N-(2,5-difluorophenyl)-4-(phenylsulfanyl)-N-{2-[3-(phenylsulfanyl)propoxy]benzyl}benzenesulfonamide] reads > 10000 nM. In the case of `C[C@H](CCC[N+](=O)[O-])N(c1cc(Cl)ccc1Cl)S(=O)(=O)c1ccc(Cl)cc1` [Example 1099, 4-chloro-N-(2,5-dichlorophenyl)-N-[4-nitro-1(R)-methylbutyl]benzenesulfonamide], the IC50 is ≤ 25 nM. In the case of `C[C@H](CCN1CCCCC1CS(C)(=O)=O)N(c1cc(Cl)ccc1Cl)S(=O)(=O)c1ccc(Cl)cc1` (stereo partly drawn) [Example 1102, 4-chloro-N-(2,5-dichlorophenyl)-N-[3-[2-[(methylsulfonyl)methyl]-1-piperidinyl]-1(R)-methylpropyl]benzenesulfonamide], the IC50 was ≤ 25 nM.

On to `C[C@H](CCCN1CCSC1C(=O)O)N(c1cc(Cl)ccc1Cl)S(=O)(=O)c1ccc(Cl)cc1` (stereo partly drawn) [Example 1103, 4-chloro-N-(2,5-dichlorophenyl)-N-[4-(2-carboxy-3-thiazolidinyl)-1(R)-methylbutyl]benzenesulfonamide], for which the IC50 was ≤ 25 nM. For the molecule `COC(=O)C1SCCN1CCC[C@@H](C)N(c1cc(Cl)ccc1Cl)S(=O)(=O)c1ccc(Cl)cc1` (stereo partly drawn) [Example 1105, 4-chloro-N-(2,5-dichlorophenyl)-N-[4-(2-methoxycarbonyl-3-thiazolidinyl)-1(R)-methylbutyl]benzenesulfonamide], the IC50 was ≤ 25 nM. As for `CC(CC[C@@H](C)N(c1cc(Cl)ccc1Cl)S(=O)(=O)c1ccc(Cl)cc1)N1CCSC1C(=O)O` (stereo partly drawn) [Example 1106, 4-chloro-N-(2,5-dichlorophenyl)-N-[4-(2-carboxy-3-thiazolidinyl)-1(R)-methylpentyl]benzenesulfonamide], the IC50 was ≤ 25 nM. Same read-out and setting: with `C[C@H](CCC[N+](=O)[O-])N(c1cc(Cl)ccc1F)S(=O)(=O)c1ccc(Cl)cc1` [Example 1107, 4-chloro-N-(5-chloro-2-fluorophenyl)-N-[4-nitro-1(R)-methylbutyl]benzenesulfonamide] the figure was ≤ 25 nM; with `C[C@H](CCN1CCSC1C(=O)O)N(c1cc(Cl)ccc1Cl)S(=O)(=O)c1ccc(Cl)cc1` (stereo partly drawn) [Example 1111, 4-chloro-N-(2,5-dichlorophenyl)-N-[3-(2-carboxy-3-thiazolidinyl)-1(R)-methylpropyl]benzenesulfonamide], 25 to 50 nM; with `CC(=O)NCCC[C@@H](C)N(c1cc(Cl)ccc1Cl)S(=O)(=O)c1ccc(Cl)cc1` [Example 1113, 4-chloro-N-(2,5-dichlorophenyl)-N-[4-(acetylamino)-1(R)-methylbutyl]benzenesulfonamide], 25 to 50 nM.

Take `CC(CCCN1CCOCC1)N(c1cc(Cl)ccc1F)S(=O)(=O)c1ccc(Cl)cc1` (stereo not drawn) [Example 1114, 4-chloro-N-(5-chloro-2-fluorophenyl)-N-[4-(4-morpholinyl)-1-methylbutyl]benzenesulfonamide]: the IC50 lay within 25 to 50 nM. Turning to `COC(=O)C1SCCN1CCCC[C@@H](C)N(c1cc(Cl)ccc1Cl)S(=O)(=O)c1ccc(Cl)cc1` (stereo partly drawn) [Example 1117, 4-chloro-N-(2,5-dichlorophenyl)-N-[5-(2-methoxycarbonyl-3-thiazolidinyl)-1(R)-methylpentyl]benzenesulfonamide], the IC50 was 25 to 50 nM. Turning to `COC(=O)C1SCCN1CC[C@@H](C)N(c1cc(Cl)ccc1Cl)S(=O)(=O)c1ccc(Cl)cc1` (stereo partly drawn) [Example 1119, 4-chloro-N-(2,5-dichlorophenyl)-N-[3-(2-methoxycarbonyl-3-thiazolidinyl)-1(R)-methylpropyl]benzenesulfonamide], the IC50 lay within 25 to 50 nM. With `C[C@H](CCCN1CCCCC1CS(C)(=O)=O)N(c1cc(Cl)ccc1Cl)S(=O)(=O)c1ccc(Cl)cc1` (stereo partly drawn) [Example 1121, 4-chloro-N-(2,5-dichlorophenyl)-N-[4-[2-[(methylsulfonyl)methyl]-1-piperidinyl]-1(R)-methylbutyl]benzenesulfonamide], the half-maximal inhibitory concentration (IC50) was 50 to 100 nM.

Staying with this assay, now noted: Homo sapiens; transfected H4 cells stably expressing APP constructs; approximately 16 hours incubation; amyloid β in medium by ELISA; read-out: ACTIVITY (IC50, inhibition of amyloid β production).
Turning to `C[Si](C)(C)C#Cc1ccccc1CN(c1ccccc1)S(=O)(=O)c1ccc(Cl)cc1` [Example 1087, 4-chloro-N-phenyl-N-{2-[(trimethylsilyl)ethynyl]benzyl}benzenesulfonamide], the IC50 is > 10000 nM.

Staying with this assay, now noted: transfected H4 cells stably expressing APP constructs; approximately 16 hours incubation; amyloid β in medium by ELISA; read-out: ACTIVITY (IC50, inhibition of amyloid β production).
With `CCOC(=O)CCCc1ccccc1CN(c1ccccc1)S(=O)(=O)c1ccccc1[N+](=O)[O-]` [Example 1096, ethyl 4-[2-({[(2-ntrophenyl)sulfonyl]anilino}methyl)phenyl]butanoate], the IC50 was > 10000 nM. For `CCCCCCCCCCCCCCCCCC(=O)N(C)CCOc1ccccc1C(C)N(c1cc(F)ccc1F)S(=O)(=O)c1ccc(Cl)cc1` (stereo not drawn) [Example 1098], the IC50 is > 10000 nM. The same measure, in the same setting: the result for `C[C@H](CCCNS(C)(=O)=O)N(c1cc(Cl)ccc1F)S(=O)(=O)c1ccc(Cl)cc1` [Example 1100] reads ≤ 25 nM. The same measure, in the same setting: the result for `C[C@H](CCCN(C)S(C)(=O)=O)N(c1cc(Cl)ccc1F)S(=O)(=O)c1ccc(Cl)cc1` [Example 1101] reads ≤ 25 nM. For `C[C@H](CCCN1CCCC(S(C)(=O)=O)C1)N(c1cc(Cl)ccc1Cl)S(=O)(=O)c1ccc(Cl)cc1` (stereo partly drawn) [Example 1108, 4-chloro-N-(2,5-dichlorophenyl)-N-[4-[(3-methylsulfonyl)-1-piperidinyl]-1(R)-methylbutyl]benzenesulfonamide], the IC50 was ≤ 25 nM. For `C[C@H](CCCN1CCCC(S(C)(=O)=O)C1)N(c1cc(Cl)ccc1Cl)S(=O)(=O)c1ccc(Cl)cc1` (stereo partly drawn) [Example 1109, 4-chloro-N-(2,5-dichlorophenyl)-N-[4-[(3-methylsulfonyl)-1-piperidinyl]-1(R)-methylbutyl]benzenesulfonamide], the IC50 was ≤ 25 nM.

In the case of `C[C@H](CCCCN1CCC(S(C)(=O)=O)C1)N(c1cc(Cl)ccc1Cl)S(=O)(=O)c1ccc(Cl)cc1` (stereo partly drawn) [Example 1112, 4-chloro-N-(2,5-dichlorophenyl)-N-[5-[(3-methylsulfonyl)-1-pyrrolidinyl]-1(R)-methylpentyl]benzenesulfonamide], the half-maximal inhibitory concentration (IC50) was 25 to 50 nM. For `C[C@H](CCCCN1CCCC(S(C)(=O)=O)C1)N(c1cc(Cl)ccc1Cl)S(=O)(=O)c1ccc(Cl)cc1` (stereo partly drawn) [Example 1115, 4-chloro-N-(2,5-dichlorophenyl)-N-[5-[(3-methylsulfonyl)-1-piperidinyl]-1(R)-methylpentyl]benzenesulfonamide], the IC50 fell in the range of 25 to 50 nM. Take `C[C@H](CCN1CCCC(S(C)(=O)=O)C1)N(c1cc(Cl)ccc1Cl)S(=O)(=O)c1ccc(Cl)cc1` (stereo partly drawn) [Example 1118, 4-chloro-N-(2,5-dichlorophenyl)-N-[3-[(3-methylsulfonyl)-1-piperidinyl]-1(R)-methylpropyl]benzenesulfonamide]: the IC50 lay in the range of 25 to 50 nM. For `CC(C)Oc1c(NCCC[C@@H](C)N(c2cc(F)ccc2F)S(=O)(=O)c2ccc(Cl)cc2)c(=O)c1=O` [Example 1120, 4-chloro-N-(2,5-difluorophenyl)-N-[4-(2-isopropoxy-3,4-dioxo-1-cyclobutenyl)amine-1(R)-methylbutyl]benzenesulfonamide], the IC50 fell in the range of 25 to 50 nM. Regarding `CC(C)Oc1c(NCCC[C@@H](C)N(c2cc(Cl)ccc2F)S(=O)(=O)c2ccc(Cl)cc2)c(=O)c1=O` [Example 1122, 4-chloro-N-(5-chloro-2-fluorophenyl)-N-[4-(2-isopropoxy-3,4-dioxo-1-cyclobutenyl)amine-1(R)-methylbutyl]benzenesulfonamide], the IC50 was in the range of 50 to 100 nM. The same measure, in the same setting: the result for `C[C@H](CCCCN1CCC(S(C)(=O)=O)CC1)N(c1cc(Cl)ccc1Cl)S(=O)(=O)c1ccc(Cl)cc1` [Example 1123, 4-chloro-N-(2,5-dichlorophenyl)-N-[5-[(4-methylsulfonyl)-1-piperidinyl]-1(R)-methylpentyl]benzenesulfonamide] reads 50 to 100 nM; that for `C[C@H](CCCNC(=O)[C@@H](O)c1ccccc1)N(c1cc(Cl)ccc1Cl)S(=O)(=O)c1ccc(Cl)cc1` [Example 1124], 50 to 100 nM. For the molecule `CC(C)Oc1c(NCC[C@@H](C)N(c2cc(F)ccc2F)S(=O)(=O)c2ccc(Cl)cc2)c(=O)c1=O` [Example 1125, 4-chloro-N-(2,5-difluorophenyl)-N-[3-(2-isopropoxy-3,4-dioxo-1-cyclobutenyl)amine-1(R)-methylpropyl]benzenesulfonamide], the IC50 was 50 to 100 nM.
